Laboratory results reported in US10316056B2, “Chemical compounds and use thereof for improving muscular quality” (BIOPHYTIS, priority 2014, dated 2019).
Where two headings read alike, the source gives them in different places. Each block holds one compound with its values, some of them ahead of it.

Tests used:
[1] = system: S6 kinase (S6K1) phosphorylation in C2C12 cells; assay: Phosphorylation of the S6 kinase in C2C12 cells (ELISA pS6K T389), protein synthesis; type: cell-based, mouse; details: C2C12, 2 h; for activity at 10 µM / activity: Mus musculus; for activity at 10 µM: read-out: Protein synthesis (percentage increase in S6K phosphorylation in muscle cells); for activity: read-out: S6K1 phosphorylation level
Protocol: After several experiments in which the C2C12 cells differentiated into myotubes were incubated in the presence of IGF-1 or 20E for 2 h 30 or 6 h, two screening tests were developed. Thus, the phosphorylation of the S6 protein kinase and the expression of the myostatin gene were studied in order to determine their modulation by a growth hormone or an ecdysone and to characterize these modulations from a statistical point of view.
The C2C12 myoblast cells (ATCC CRL-1772) are seeded into 6-well plates at a density of 170 000 cells per well and cultured in a DMEM medium containing glucose in a proportion of 4.5 g/l and supplemented with fetal calf serum (10%) and with antibiotics (penicillin and streptomycin). Forty-eight hours later, the myoblasts are induced to differentiate by partial serum depletion (2% instead of 10%) for 5 days. The cells are then placed in a medium which is glucose-depleted (DMEM containing 1 g/l of glucose) and serum-free in the presence of the test molecules or of the references (100 ng/ml IGF-1 or 10 μM 20E) for 2 h. At the end of the experiment, the cells are lysed in a commercial lysis buffer (Invitrogen FNN0011) supplemented with a commercial mixture of anti-proteases (Roche 05056489001). After centrifugation, the cytoplasmic fraction containing the soluble proteins is kept and the protein concentration is determined using a commercial kit (Biorad 500-0114), the principle of which is composed of assaying by the Lowry method. The assaying of the S6 kinase phosphorylation is carried out using a commercial ELISA (Enzyme Linked ImmunoSorbent Assay) kit (Cell signaling 7063). Briefly, 50 μg of protein lysate are deposited in the wells of a 96-well microplate and incubated overnight at 4° C. with the solution of antigen specific for the pS6 kinase threonine 389 antibody. The binding of the antigen to the bottom of the wells is done electrostatically. The solution of antibody to be assayed (pS6K T389) is then incubated at 37° C. in the wells for 2 hours. The antibodies bind specifically to the antigen. The wells are then washed with washing buffer in order to remove the antigen-specific primary antibodies to be assayed which are in excess. The third step consists in binding the detection antibody. The solution of detection antibodies is incubated at 37° C. in the wells for 1 hour. The wells are then washed in order to remove the excess detection antibodies. It should be noted that the detection antibodies are coupled to an enzyme which, in the presence of its substrate, converts it into a reaction product that can be detected and measured by virtue of the appearance of a coloration. […] The appearance of a blue coloration in the substrate indicates the presence of the antibody to be assayed. In order to prevent any saturation phenomenon, a stop solution (generally containing […]) is added and brings about a change in coloration, which goes from blue to yellow. The strength thereof is proportional to the amount of enzyme present and thus to the concentration of antibody sought. The strength of the signal is measured using spectrophotometry at a wavelength of 450 nm.

[2] = system: Soleus muscle of C57BL/6 mice subjected to a high-fat diet; assay: Mice subjected to a high-fat diet: weight and amount of proteins of the Soleus muscle; type: in vivo, C57BL/6J mice; details: 5 mg/kg orally, high-fat diet for 6 weeks, compared with the control group
Protocol: (§1) The 20E as comparative compound and the compounds according to the invention (Nos. 51 and 93) were administered orally, at a dose of 5 mg/kg of body weight, to 12-week-old C57BL/6J mice subjected to a high-fat diet for 6 weeks. The effect of the compounds on the weight and the amount of proteins of the Soleus muscle and also the transcripts of genes involved in myogenesis were evaluated.
The amount of proteins is determined by first lysing the muscles sampled in a 0.1N NaOH solution with the FastPrep technique. The proteins are quantified by means of a colorimetric assay derived from the Lowry method.
(§2) The in vivo study is carried out by evaluating the effect of 20E as comparative compound and of the molecules according to the invention (Nos. 51 and 93) administered orally, at a dose of 5 mg/kg of body weight, to C57BL/6 mice subjected to a high-fat diet for 6 weeks. The effect of the molecules on the weight and the amount of proteins of the Soleus muscle and also the transcripts of genes involved in myogenesis were evaluated.

myostatin transcript = assay: Mice subjected to a high-fat diet: myostatin transcript of the Soleus muscle; type: in vivo, C57BL/6J mice; details: 5 mg/kg orally; high-fat diet for 6 weeks; FIG. 4
Protocol: as §1
In order to carry out the gene expression analysis, the muscle tissues were homogenized in a Trizol solution (500 μl), and the RNAs were extracted and purified using the phenol/chloroform method. An amount of […] of RNA was used as template for the synthesis of the first cDNA strand using oligo (dT)s as primers and the AMV reverse transcriptase enzyme as described by the supplier (Applied Biosystems 4368814). The q-PCRs were then carried out using a 7900HT machine equipped with a rapid system for real-time detection by PCR (Applied Biosystems) and the standard qPCR program (1 cycle of 95° C. for 15 min, 40 cycles of 95° C. for 15 s and 60° C. for 1 min, a 60-95° C. melt curve for the Sybergreen probes). The experiments are carried out in a Sybergreen SYBR master mix (Applied Biosystems) containing the 100 ng cDNA samples and a set of primers which bind to the two different exons and at a final concentration of 200 nM.
(§3) The relative differences in gene expression between treatments are expressed as increase or decrease in the number of cycle times [Ct] compared with the control group, the [Ct] value of each gene having been standardized with the beta-actin gene.
as §2

MyoD transcripts = assay: Mice subjected to a high-fat diet: MyoD transcripts of the Soleus muscle; type: in vivo, C57BL/6J mice; details: 5 mg/kg orally; high-fat diet for 6 weeks; FIG. 5A
Protocol: as §1
(§4) Myogenesis, which is the process for forming muscle tissues, is controlled by several myogenic transcription factors which act as end effectors of the signaling cascade and produce transcripts involved in the various stages of development. The roles of the transcription factors have been described in various journals (Sabourin and Rudnicki 2000 and Le Grand and Rudnicki 2007). The Pax7 protein (Paired-box protein 7) maintains a population of satellite cells in quiescence and, with Myf5 (Myogenic factor 5), plays a role in the expansion of activated myoblasts. The MyoD protein (Myoblast Determination protein) appears to determine the differentiation potential of activated myoblasts, and cooperates with myogenin and the MEF2 (Myocyte Enhancer Factor 2) protein to control and bring about differentiation. Finally, MRF4 (Muscle-specific Regulatory Factor 4) is required for hypertrophy, even though it probably plays other roles. […]
as §3, §2

Myf5 gene transcripts = assay: Mice subjected to a high-fat diet: Myf5 transcripts; type: in vivo, C57BL/6J mice; details: 5 mg/kg orally; high-fat diet for 6 weeks
Protocol: as §1, §4, §3, §2

myogenin transcripts = assay: Mice subjected to a high-fat diet: myogenin transcripts of the Soleus muscle; type: in vivo, C57BL/6J mice; details: 5 mg/kg orally; high-fat diet for 6 weeks; FIG. 5B
Protocol: as §1, §4, §3, §2

[3] = rat, in vivo, po
Protocol: (§5) The pharmacokinetics of the compounds were evaluated orally using male Wistar rats (Charles River). […] The novel compounds according to the invention were administered at a dose of 10 mg/kg of body weight in the form of a mixture of 4 to 6 products. After administration, the blood was sampled from the tail at t=0.25 h, 0.5 h, 1 h, 3 h, 6 h and 8 h. The blood samples were centrifuged and the plasmas removed.

[4] = system: myostatin gene expression in C2C12 cells; assay: Inhibition of myostatin expression in C2C12 cells (qPCR); type: cell-based; details: Mus musculus, percentage myostatin gene expression in cells in contact with the compounds related to control cells, C2C12, 6 h
Method in brief: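 C2C12 myoblasts differentiated to myotubes for 5 days in 2% serum, then treated 6 h with compounds in serum-free, low-glucose (1 g/l) DMEM; IGF-1 100 ng/ml as reference. Myostatin mRNA quantified by RT-qPCR, expressed relative to untreated control as R=2^-ΔΔCt.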

in vivo = details: male, Wistar, rat, po, 10 mg/kg
Protocol: as §5

[5] = test compounds and 20E reference (10 μM)

Cexp (coefficient of exposure) [3]: 1.0
AUC ([3]; 50 mg/kg): 382 ng·h/mL
Cmax ([3]; 50 mg/kg): 68 ng/mL
Tmax ([3]; 50 mg/kg): 30 min
SMILES: CC(C)(O)CC[C@@H](O)[C@](C)(O)[C@H]1CC[C@@]2(O)C3=CC(=O)[C@@H]4C[C@@H](O)[C@@H](O)C[C@]4(C)[C@H]3CC[C@]12C [Compound 20E, 20-hydroxyecdysone, reference compound]
S6K1 phosphorylation level [1, 5]: 120%
weight of the Soleus muscle ([2]; FIG. 3A): increases
amount of proteins of the Soleus muscle ([2]; FIG. 3B): increases
myostatin expression in the Soleus muscle (myostatin transcript): comparably inhibit
transcripts of the MyoD gene (MyoD transcripts): increase
transcripts of the Myf5 gene (Myf5 gene transcripts): increase
transcript of the myogenin gene (myogenin transcripts): increase

SMILES: C/C(=N/OCCN1CCOCC1)[C@H]1CC[C@@]2(O)C3=CC(=O)[C@@H]4C[C@@H](O)[C@@H](O)C[C@]4(C)C3CC[C@]12C (stereo partly drawn) [Compound 31, (2S,3R,5R,10R,13R,14S,17S)-2,3,14-trihydroxy-10,13-dimethyl-17-(C-methyl-N-(2-morpholinoethoxy)carbonimidoyl)-2,3,4,5,9,11,12,15,16,17-decahydro-1H-cyclopenta[a]phenanthren-6-one]
mrna remaining at 10 µM [4]: < 70%
Cexp (coefficient of exposure) ([3]; male, Wistar): 3.7
plasma exposure compared with 20E [3]: better plasma exposure
AUC (in vivo): 281 ng·h/mL
Cmax (in vivo): 105 ng/mL
Tmax (in vivo): 15 min

SMILES: CC(NCC1CCCO1)[C@H]1CC[C@@]2(O)C3=CC(=O)[C@@H]4C[C@@H](O)[C@@H](O)C[C@]4(C)C3CC[C@]12C (stereo partly drawn) [Compound 46, (2S,3R,5R,10R,13R,14S,17S)-2,3,14-trihydroxy-10,13-dimethyl-17-[1-(tetrahydrofuran-2-ylmethylamino)ethyl]-2,3,4,5,9,11,12,15,16,17-decahydro-1H-cyclopenta[a]phenanthren-6-one]
mrna remaining at 10 µM [4]: < 70%
activity at 10 µM [1]: 110 to 129%
activity [1, 5]: ~120%
Cexp (coefficient of exposure) ([3]; male, Wistar): 2.6
plasma exposure compared with 20E [3]: better plasma exposure
AUC (in vivo): 202 ng·h/mL
Cmax (in vivo): 40 ng/mL
Tmax (in vivo): 15 min

SMILES: C[C@]12C[C@H](O)[C@H](O)C[C@H]1C(=O)C=C1C2CC[C@]2(C)[C@@H](C(=O)CN3CCC(O)CC3)CC[C@@]12O (stereo partly drawn) [Compound 88, (2S,3R,5R,10R,13R,14S,17S)-2,3,14-trihydroxy-17-[2-(4-hydroxy-1-piperidyl)acetyl]-10,13-dimethyl-2,3,4,5,9,11,12,15,16,17-decahydro-1H-cyclopenta[a]phenanthren-6-one]
mrna remaining at 10 µM [4]: 71 to 85%
activity at 10 µM [1]: 110 to 129%
activity [1, 5]: ~120%

SMILES: C[C@]12C[C@H](O)[C@H](O)C[C@H]1C(=O)C=C1C2CC[C@]2(C)[C@@H](C(=O)CN3CCC(CCO)CC3)CC[C@@]12O (stereo partly drawn) [Compound 89, (2S,3R,5R,10R,13R,14S,17S)-2,3,14-trihydroxy-17-[2-[4-(2-hydroxyethyl)-1-piperidyl]acetyl]-10,13-dimethyl-2,3,4,5,9,11,12,15,16,17-decahydro-1H-cyclopenta[a]phenanthren-6-one]
mrna remaining at 10 µM [4]: < 70%
activity at 10 µM [1]: > 130%
activity [1, 5]: 130 to 140%

SMILES: CN(C)CCCN(C)CC(=O)[C@H]1CC[C@@]2(O)C3=CC(=O)[C@@H]4C[C@@H](O)[C@@H](O)C[C@]4(C)C3CC[C@]12C (stereo partly drawn) [Compound 91, (2S,3R,5R,10R,13R,14S,17S)-17-[2-(3-dimethylaminopropyl(methyl)amino)acetyl]-2,3,14-trihydroxy-10,13-dimethyl-2,3,4,5,9,11,12,15,16,17-decahydro-1H-cyclopenta[a]phenanthren-6-one]
mrna remaining at 10 µM [4]: 71 to 85%
activity at 10 µM [1]: 110 to 129%
activity [1, 5]: ~120%

SMILES: CCOC(=O)CSCC(=O)[C@H]1CC[C@@]2(O)C3=CC(=O)[C@@H]4C[C@@H](O)[C@@H](O)C[C@]4(C)C3CC[C@]12C (stereo partly drawn) [Compound 92, Ethyl 2-[2-oxo-2-[(2S,3R,5R,10R,13R,14S,17S)-2,3,14-trihydroxy-10,13-dimethyl-6-oxo-2,3,4,5,9,11,12,15,16,17-decahydro-1H-cyclopenta[a]phenanthren-17-yl]ethyl]sulfanylacetate]
mrna remaining at 10 µM [4]: < 70%
activity at 10 µM [1]: 110 to 129%
activity [1, 5]: ~120%

SMILES: C[C@]12C[C@H](O)[C@H](O)C[C@H]1C(=O)C=C1C2CC[C@]2(C)[C@@H](C(=O)CSCCO)CC[C@@]12O (stereo partly drawn) [Compound 94, (2S,3R,5R,10R,13R,14S,17S)-2,3,14-trihydroxy-17-[2-(2-hydroxyethylsulfanyl)acetyl]-10,13-dimethyl-2,3,4,5,9,11,12,15,16,17-decahydro-1H-cyclopenta[a]phenanthren-6-one]
mrna remaining at 10 µM [4]: < 70%
activity at 10 µM [1]: > 130%
activity [1, 5]: 130 to 140%
